Earlier results as cited in US8372434B2, “Ophthalmic oil-in-water type emulsion with stable positive zeta potential” (Novagali Pharma SA, priority 2004, dated 2013).

Conditions: at 0.1% or 0.3% w/v

SMILES	safety for ocular administration
CCCCCCCC/C=C\CCCCCCCCN [oleylamine]	safe for ocular administration
CCCCCCCCCCCCCCCCCCN [stearylamine]	safe for ocular administration
